# Results: article PMC9785474, “Solubility Enhancement of Dihydroquercetin via “Green” Phase Modification” (International Journal of Molecular Sciences, 2022)
# Tests used:
# [1] = ABTS/PP antioxidant capacity assay; conditions: for Antioxidant Capacity, n-Value: ABTS•+ radicals scavenged by one molecule of antioxidant, 6 min, 730 nm; for Antioxidant Capacity, n-Value / Antioxidant Capacity, ΔA: mean ± SD; for Antioxidant Capacity, ΔA: absorbance decrease at 730 nm, 6 min incubation at 32 °C, corrected for self-bleaching; for Changes of ΔA and n-values from DHQR (paired Student's t-test): compared with DHQR
# Protocol: To compare the antioxidant capacity of DHQ in different forms, we employed the ABTS/PP assay, as reported by Re et al., with some modifications. In brief, an antioxidant was added to the pre-generated stock solution of radical-cation ABTS^•+, and then, after 6 min incubation in the dark place at 32 °C, the decrease in the absorption at 730 nm was calculated. ABTS^•+ self-bleaching after 6 min was measured in the same conditions without the addition of antioxidants. The initial ABTS^•+ absorbance in the incubation mix before the addition of an antioxidant was adjusted to […]. The stock solution of the radical-cation ABTS^•+ was prepared by the incubation of the ABTS with PP at final concentrations of 7 mM and 2.5 mM, respectively, during 12–16 h in the dark. UV-Vis spectra were obtained on a Cary 100 (Varian, Palo Alto, CA, USA).
# The absorbance decrease ∆A at 730 nm due to inhibition of radical-cation ABTS^•+ was calculated as follows (5):∆A = A0 − A1 − ∆Asb,(5) where A0 and A1 are the ABTS^•+ absorbances at 730 nm, pathlength 1 cm, before and 6 min after the antioxidant addition, respectively. The self-bleaching of radical-cation ABTS^•+ ∆Asb was calculated as the difference between the ABTS^•+ absorbance right after the addition of stock ABTS^•+ to PBS to give absorbance 1.0 ± 0.1 and 6 min later.
# The amount of ABTS^•+ radicals scavenged by one molecule of antioxidant (n-value) was calculated according to the Equation (6):(6) N=CABTS·+/Cantioxidant=ΔA/ε · Cantioxidant, where CABTS^•+ is the concentration of the scavenged ABTS^•+, ε is the extinction at 730 nm 15,000 L·mol^−1·cm^−1, l is the optical pathlength 1 cm, and Cantioxidant is the concentration of the antioxidant.
# [2] = Solubility by European Pharmacopeia (EP) express method; type: physicochemical; conditions: for solubility: thermodynamic from solid; for solubility / Term by EP: water solubility, ambient conditions, European Pharmacopeia 10.0
# Protocol: Solubility is one of the key parameters to describe the biopharmaceutical characteristics of active pharmaceutical ingredients. There are different ways of solubility determination. One of them is an express method widely used in pharmaceutical science, described in European Pharmacopeia (EP). More accurate data may be obtained by the sedimentation method.
# The analysis was performed in accordance with the pharmacopoeial monograph of European Pharmacopeia 10.0 [52] at ambient conditions.
# [3] = Solubility by sedimentation method (centrifugation, UV spectrometry); type: physicochemical; conditions: for solubility: water, thermodynamic from solid
# Protocol: Solubility is one of the key parameters to describe the biopharmaceutical characteristics of active pharmaceutical ingredients. There are different ways of solubility determination. One of them is an express method widely used in pharmaceutical science, described in European Pharmacopeia (EP). More accurate data may be obtained by the sedimentation method. […] To determine the concentration of DHQ solutions, UV spectrometry was applied. Three hundred mg of each DHQ sample were dissolved in 10.0 mL of […] and centrifuged for 5 min at 10,000 rpm by centrifuge MiniSpin® (Eppendorf AG, Hamburg, Germany). The analyzed solutions were prepared by dilution of the supernatant 50 μL up to 25 mL with distilled water. The UV spectra were recorded with a Cary-100 (Varian, Palo Alto, CA, USA). The accurate concentrations were calculated using a calibration curve.
# [4] = 300 mg in 10.0 mL, centrifuged 5 min at 10,000 rpm, UV spectrometry of supernatant, mean ± SD
Compound,"Antioxidant Capacity, n-Value [1]","Antioxidant Capacity, ΔA [1]",Changes of ΔA and n-values from DHQR (paired Student's t-test) [1],solubility [2] [µg/mL],Term by EP [2],"Solubility, By Sedimentation Method [3, 4] [µg/mL]","Increase of solubility compared with DHQR, sedimentation method [3] [times]","Enhancement of water solubility compared with DHQR, EP method ([2]; compared with DHQR)","solubility [3, 4] [µg/mL]"
O=C1c2c(O)cc(O)cc2O[C@H](c2ccc(O)c(O)c2)[C@H]1O [DHQA],7.13 ± 0.19,0.499 ± 0.014,statistically non-significant changes,1000 to 10000,slightly soluble,2140 ± 60,3.1,–,–
O=C1c2c(O)cc(O)cc2O[C@H](c2ccc(O)c(O)c2)[C@H]1O [DHQE],7.19 ± 0.37,0.504 ± 0.026,statistically non-significant changes,–,soluble,–,4.4,at least 30 fold,3090 ± 90
"O=C1c2c(O)cc(O)cc2OC(c2ccc(O)c(O)c2)C1O (stereo not shown) [DHQR, 2-(3,4-dihydroxyphenyl)-3,5,7-trihydroxy-2,3-dihydro-4H-1-benzopyran-4-one, reference compound]",7.30 ± 0.24,0.511 ± 0.017,–,100 to 1000,very slightly soluble,–,–,–,700 ± 20
